What was measured:
Type in all cases: biochemical
[1] = target: HDAC1 (Homo sapiens, UniProt Q13547); experiment: HDAC1 enzyme activity inhibition IC50 evaluation experiment; conditions: HDAC1 10 nM, acetylated peptide 8 μM, trypsin, fluorescence
Protocol: (§1) Effect Example 2 HDAC1, HDAC2, HDAC3, HDAC6 enzyme activity inhibition IC50 evaluation experiment
(§2) Buffer solution (50 mM Tris 7.5, 0.01% Tween-20, 50 mM NaCl) was prepared according to the kit instructions, and the enzyme solution and substrate solution (acetylated peptide with the addition of trypsin) were prepared using the buffer solution. The test compound samples were dissolved with DMSO and added to the screening system at a certain starting concentration such as 10 μM, 3-fold dilution, while setting up a DMSO control and no-enzyme control. The enzyme reaction system includes: buffer, enzyme [final concentration: HDAC1=10 nM, HDAC2=4 nM, HDAC3=7 nM, HDAC6=5 nM], substrate (acetylated peptide) [final concentration: Peptide(HDAC1)=8 μM, Peptide(HDAC2)=10 μM, Peptide(HDAC3)=5 μM, Peptide(HDAC6)=11 μM], trypsin [final concentration: Trypsin(HDAC1,2,3)=0.05 μM, Trypsin(HDAC6)=0.1 μM], etc. The enzymes and compounds were reacted at room temperature for 15 min. After adding the substrate and Trypsin, centrifugation was performed for 1 min, and the fluorescence signal data (excitation wavelength 355 nM/emission wavelength 460 nm) was read continuously for 60 min using Envision, and the linear reaction segment was selected to obtain the slope and thus calculate the inhibition rate at that concentration. The IC50 value was obtained by fitting the curve using the formula Y=Bottom+(Top-Bottom)/(1+(IC50/X)^HillSlope).

[2] = target: HDAC3 (Homo sapiens, UniProt O15379); experiment: HDAC3 enzyme activity inhibition IC50 evaluation experiment; conditions: HDAC3 7 nM, acetylated peptide 5 μM, trypsin, fluorescence
Sequence of HDAC3 (O15379 whole entry, species assumed): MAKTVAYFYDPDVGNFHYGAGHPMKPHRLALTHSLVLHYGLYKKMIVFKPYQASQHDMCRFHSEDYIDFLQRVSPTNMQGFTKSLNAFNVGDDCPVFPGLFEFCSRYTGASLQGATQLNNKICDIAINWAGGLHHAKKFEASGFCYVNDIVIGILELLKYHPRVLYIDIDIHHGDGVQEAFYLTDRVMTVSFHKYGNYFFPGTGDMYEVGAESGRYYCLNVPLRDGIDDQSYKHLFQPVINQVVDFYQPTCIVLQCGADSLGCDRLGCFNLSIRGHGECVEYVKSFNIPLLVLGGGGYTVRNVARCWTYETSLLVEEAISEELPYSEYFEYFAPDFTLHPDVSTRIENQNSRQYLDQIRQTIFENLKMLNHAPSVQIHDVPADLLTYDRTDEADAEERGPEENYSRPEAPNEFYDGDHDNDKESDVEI
Sequence of HDAC3 (Q9Y618 395-489 partner limits assumed, species assumed): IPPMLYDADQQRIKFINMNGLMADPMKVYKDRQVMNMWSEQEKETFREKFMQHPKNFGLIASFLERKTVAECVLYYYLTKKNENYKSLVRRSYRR
Protocol: as §1, §2

[3] = target: PI3Kγ (Homo sapiens, UniProt P48736); experiment: PI3Kγ enzyme activity inhibition IC50 evaluation assay (ADP-Glo Kinase Assay); conditions: ATP 25 μM, PIP2 50 μg/mL, 1 hour room temperature, read-out: PI3K-γ IC50
Sequence of PI3Kγ (P48736 whole entry, species assumed): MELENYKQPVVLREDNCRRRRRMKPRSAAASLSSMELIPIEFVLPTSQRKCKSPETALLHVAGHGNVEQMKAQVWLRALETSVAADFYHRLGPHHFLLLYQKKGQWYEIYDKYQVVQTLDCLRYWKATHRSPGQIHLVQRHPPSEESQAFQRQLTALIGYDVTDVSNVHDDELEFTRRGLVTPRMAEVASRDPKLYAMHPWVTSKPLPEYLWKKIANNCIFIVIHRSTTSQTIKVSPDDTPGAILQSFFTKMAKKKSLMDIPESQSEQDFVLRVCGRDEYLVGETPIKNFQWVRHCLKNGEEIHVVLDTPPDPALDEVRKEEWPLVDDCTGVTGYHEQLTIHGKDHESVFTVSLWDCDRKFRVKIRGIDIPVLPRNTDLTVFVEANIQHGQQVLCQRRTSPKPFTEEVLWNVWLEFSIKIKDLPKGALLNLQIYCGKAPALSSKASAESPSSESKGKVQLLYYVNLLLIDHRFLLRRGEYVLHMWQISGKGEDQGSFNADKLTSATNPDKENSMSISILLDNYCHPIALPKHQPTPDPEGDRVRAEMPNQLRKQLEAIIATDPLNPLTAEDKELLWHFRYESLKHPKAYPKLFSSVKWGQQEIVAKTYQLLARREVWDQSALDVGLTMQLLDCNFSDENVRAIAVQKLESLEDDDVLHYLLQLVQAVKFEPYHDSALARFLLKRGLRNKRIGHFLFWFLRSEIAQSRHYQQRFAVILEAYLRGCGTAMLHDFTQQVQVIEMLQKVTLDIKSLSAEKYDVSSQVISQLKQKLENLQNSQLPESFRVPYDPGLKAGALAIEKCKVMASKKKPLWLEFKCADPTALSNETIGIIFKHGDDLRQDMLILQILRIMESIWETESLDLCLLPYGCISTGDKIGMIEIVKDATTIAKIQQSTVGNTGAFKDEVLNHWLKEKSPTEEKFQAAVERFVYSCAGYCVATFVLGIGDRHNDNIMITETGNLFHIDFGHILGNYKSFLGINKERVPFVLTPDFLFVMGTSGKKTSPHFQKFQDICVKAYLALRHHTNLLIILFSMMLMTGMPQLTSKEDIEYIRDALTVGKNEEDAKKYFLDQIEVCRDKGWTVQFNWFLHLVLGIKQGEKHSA
Protocol: (§3) Effec Example 1 IC50 evaluation assay for PI3Kα, PI3Kδ, PI3Kβ and PI3Kγ enzyme activity inhibition
(§4) The experiment was performed using the ADP-Glo Kinase Assay kit, following the instructions. The following buffer solutions were prepared: 50 mM HEPES, pH 7.5, 3 mM MgCl2, 1 mM EGTA, 100 mM NaCl, 0.03% CHAPS, 2 mM DTT. The test compound samples were dissolved in DMSO and added to the screening system at a certain starting concentration such as 10 μM, 3-fold dilution, while setting up both DMSO control and no kinase control. The optimal concentrations of PI3Kα, PI3Kδ, PI3Kβ and PI3Kγ enzymes, substrate (PIP2) and ATP were prepared in buffer. The enzyme reaction system included: buffer, ATP 25 μM, kinase substrate (PIP2, 50 μg/mL), kinases [PI3Kα (0.15 μg/mL), PI3Kδ (1.2 μg/mL), PI3Kβ (0.3 μg/mL) and PI3Kγ (2.5 μg/mL)], etc. The reaction system was reacted at room temperature for 1 hour. The reaction was terminated by adding a termination reagent (ADP-Glo reagent, 5 μL), and the ADP content in the system was detected using a detection reagent (Kinase Detection Reagent, 10 μL). Signal data were collected using the Envision instrument. Calculate the percentage of (%) inhibition according to the following formula: % inhibition=(DMSO control signal value−sample signal value)/(DMSO control signal value−no-kinase control signal value). The IC50 value was obtained by fitting the curve using the formula Y=Bottom+(Top-Bottom)/(1+(IC50/X)^HillSlope).

[4] = target: PI3Kβ (Homo sapiens, UniProt P42338); experiment: PI3Kβ enzyme activity inhibition IC50 evaluation assay (ADP-Glo Kinase Assay); conditions: ATP 25 μM, PIP2 50 μg/mL, 1 hour room temperature, read-out: PI3K-β IC50
Sequence of PI3Kβ (P42338 whole entry, species assumed): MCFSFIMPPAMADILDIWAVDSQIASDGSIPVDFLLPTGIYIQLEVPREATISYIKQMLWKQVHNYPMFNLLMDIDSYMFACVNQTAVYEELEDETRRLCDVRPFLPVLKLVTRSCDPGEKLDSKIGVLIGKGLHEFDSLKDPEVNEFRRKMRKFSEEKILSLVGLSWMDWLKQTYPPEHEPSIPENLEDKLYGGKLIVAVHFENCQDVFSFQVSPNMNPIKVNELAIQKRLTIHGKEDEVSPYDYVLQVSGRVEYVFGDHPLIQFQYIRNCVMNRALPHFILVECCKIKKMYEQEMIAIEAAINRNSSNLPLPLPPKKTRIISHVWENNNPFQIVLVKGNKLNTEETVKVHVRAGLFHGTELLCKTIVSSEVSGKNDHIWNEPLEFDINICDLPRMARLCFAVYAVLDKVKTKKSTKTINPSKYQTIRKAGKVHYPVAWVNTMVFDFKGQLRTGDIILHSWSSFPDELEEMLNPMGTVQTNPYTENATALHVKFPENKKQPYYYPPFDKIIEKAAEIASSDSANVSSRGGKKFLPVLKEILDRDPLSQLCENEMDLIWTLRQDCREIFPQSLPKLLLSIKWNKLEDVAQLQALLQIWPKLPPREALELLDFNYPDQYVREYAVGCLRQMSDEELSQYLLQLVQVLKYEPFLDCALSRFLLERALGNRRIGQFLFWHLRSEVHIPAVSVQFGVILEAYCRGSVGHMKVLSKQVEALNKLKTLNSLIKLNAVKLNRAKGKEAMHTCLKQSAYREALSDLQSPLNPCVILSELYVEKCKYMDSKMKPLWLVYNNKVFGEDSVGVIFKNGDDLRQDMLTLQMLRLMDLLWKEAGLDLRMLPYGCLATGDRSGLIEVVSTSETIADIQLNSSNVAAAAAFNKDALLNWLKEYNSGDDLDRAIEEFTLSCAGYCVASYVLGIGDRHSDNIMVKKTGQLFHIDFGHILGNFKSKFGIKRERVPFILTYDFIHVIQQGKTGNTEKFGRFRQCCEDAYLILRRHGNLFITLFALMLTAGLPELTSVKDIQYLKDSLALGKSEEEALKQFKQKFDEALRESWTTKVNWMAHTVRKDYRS
Sequence of PI3Kβ (P27986 whole entry partner, species assumed): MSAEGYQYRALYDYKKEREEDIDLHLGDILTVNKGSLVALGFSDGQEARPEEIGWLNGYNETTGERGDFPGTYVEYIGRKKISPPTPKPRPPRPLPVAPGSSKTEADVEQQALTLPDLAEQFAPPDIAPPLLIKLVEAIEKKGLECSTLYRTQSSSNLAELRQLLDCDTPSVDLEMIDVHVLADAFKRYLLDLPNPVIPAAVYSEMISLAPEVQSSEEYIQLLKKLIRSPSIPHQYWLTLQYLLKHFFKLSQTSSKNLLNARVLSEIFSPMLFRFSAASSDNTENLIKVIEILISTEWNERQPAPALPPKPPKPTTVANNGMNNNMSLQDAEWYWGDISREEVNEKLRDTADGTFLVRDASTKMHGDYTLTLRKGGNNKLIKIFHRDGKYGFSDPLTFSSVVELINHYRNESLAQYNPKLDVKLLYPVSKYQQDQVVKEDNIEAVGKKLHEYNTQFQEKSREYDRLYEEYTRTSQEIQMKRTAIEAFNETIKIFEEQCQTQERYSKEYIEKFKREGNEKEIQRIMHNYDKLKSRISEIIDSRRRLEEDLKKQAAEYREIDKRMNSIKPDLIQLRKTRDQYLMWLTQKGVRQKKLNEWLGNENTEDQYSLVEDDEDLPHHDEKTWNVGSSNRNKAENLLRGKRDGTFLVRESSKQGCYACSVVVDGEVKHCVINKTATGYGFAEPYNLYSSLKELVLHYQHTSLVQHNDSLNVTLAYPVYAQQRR
Protocol: as §3, §4

Sequence of HDAC1 (Q13547 whole entry, species assumed): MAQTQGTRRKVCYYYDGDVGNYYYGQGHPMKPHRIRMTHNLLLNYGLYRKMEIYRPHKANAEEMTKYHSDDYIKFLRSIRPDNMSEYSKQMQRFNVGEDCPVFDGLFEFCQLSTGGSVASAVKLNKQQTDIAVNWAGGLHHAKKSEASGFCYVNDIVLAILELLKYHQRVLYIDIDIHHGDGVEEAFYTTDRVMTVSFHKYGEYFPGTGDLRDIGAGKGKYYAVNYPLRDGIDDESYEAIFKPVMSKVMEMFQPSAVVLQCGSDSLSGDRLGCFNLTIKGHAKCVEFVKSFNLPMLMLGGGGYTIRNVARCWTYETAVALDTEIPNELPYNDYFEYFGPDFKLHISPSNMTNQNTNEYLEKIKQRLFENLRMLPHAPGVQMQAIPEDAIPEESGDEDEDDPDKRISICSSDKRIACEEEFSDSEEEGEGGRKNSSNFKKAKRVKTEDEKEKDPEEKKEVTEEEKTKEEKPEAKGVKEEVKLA

SMILES	IC50 [1]	IC50 [2]	IC50 [3]	IC50 [4]
COc1ncc(-c2nc(N3CCOCC3)nc3c(OC4CCN(c5ccc(C(=O)NO)cn5)CC4)cc(F)cc23)cc1NS(C)(=O)=O [Compound 40]	10 to 100 nM	100 to 1000 nM		
COc1ncc(-c2nc(N3CCOCC3)nc3c(OC4CCN(c5ncc(C(=O)NO)cn5)CC4)cc(F)cc23)cc1NS(C)(=O)=O [Compound 39]	≤ 10 nM	10 to 100 nM		
COc1ncc(-c2nc(N3CCOCC3)nc3c(CN4CCN(c5ncc(C(=O)NO)cn5)CC4)cc(F)cc23)cc1NS(C)(=O)=O [Compound 7]	10 to 100 nM	10 to 100 nM	1000 to 10000 nM	100 to 1000 nM
COc1ncc(-c2nc(N3CCOCC3)nc3c(OCCCCCCC(=O)NO)cc(F)cc23)cc1NS(C)(=O)=O [Compound 9]	≤ 10 nM	10 to 100 nM		
COc1ncc(-c2nc(N3CCOCC3)nc3c(OC4CCN(c5ncc(C(=O)NO)cc5F)CC4)cc(F)cc23)cc1NS(C)(=O)=O [Compound 30]	100 to 1000 nM	100 to 1000 nM	1000 to 10000 nM	1000 to 10000 nM

Reference: patent US20240217947A1, “Morpholinylquinazoline Compound, Pharmaceutical compositions thereof and Use Thereof” (SHANGHAI YINGLI PHARMACEUTICAL CO., LTD, priority 2022, published 2024)
